# Source: PMC4352194, “Physicochemical and Biological Properties of Oxovanadium(IV), Cobalt(II) and Nickel(II) Complexes with Oxydiacetate Anions” (Biological Trace Element Research, 2014)
# Experiments:
# [1] = Conductometric titration: limiting molar conductance and association constants; type: physicochemical; settings: 298.15 K
# Description: Conductometric measurements were accomplished on the Cerko Lab System microtitration unit fitted with a 5-mL Hamilton’s syringe, a CD-201 conductometric cell with the constant k = 0.096 cm^−1 (HYDROMET) and a self-made measuring cell equipped with a magnetic stirrer. The conductometric electrode was standardized with conductivity standards (aqueous KCl solutions) of conductivity 84 and 200 μS/cm, purchased from Hamilton Company. The measurements were carried out at 298.15 ± 0.10 K controlled by the Lauda E100 circulation thermostat. The titrant (5 mM [Co(ODA)(H2O)] or [Ni(ODA)(H2O)3]) was added to the titrand (0–50 % v/v DMSO-H2O) both at the same mole fraction of organic solvent, in increments of 0.01 mL, with a pause of 60 s. Each titration was repeated at least three times in order to check the reproducibility of the data. The limiting molar conductance values (Λo) and the association constants (logK ass) for the nickel(II) and cobalt(II) complexes were computed using the Shedlovsky’s and Pitt’s method. The physicochemical parameters of the binary solvents used in the calculations were taken from the literature. They are collected in Table 1.
# The limiting molar conductance values (Λo) and the association constants (logK ass) for the nickel(II) and cobalt(II) complexes were computed using Shedlovsky’s and Pitt’s equations and are consequently collected in Table 4.
# [2] = test system: Pseudomonas aeruginosa; assay: Disc diffusion test; type: cell-based; settings: P. aeruginosa
# [3] = test system: Escherichia coli; assay: Disc diffusion test; type: cell-based; settings: E. coli
# [4] = Pitts method, DMSO-water 0 % v/v
# [5] = Pitts method, DMSO-water 10 % v/v
# [6] = Pitts method, DMSO-water 20 % v/v
# [7] = Pitts method, DMSO-water 30 % v/v
# [8] = Pitts method, DMSO-water 40 % v/v
# [9] = Pitts method, DMSO-water 50 % v/v
# [10] = Shedlovsky method, DMSO-water 0 % v/v
# [11] = Shedlovsky method, DMSO-water 10 % v/v
# [12] = Shedlovsky method, DMSO-water 20 % v/v
# [13] = Shedlovsky method, DMSO-water 30 % v/v
# [14] = Shedlovsky method, DMSO-water 40 % v/v
# [15] = Shedlovsky method, DMSO-water 50 % v/v
Structure (SMILES),"association constant logK ass [1, 4]","limiting molar conductance Λo [1, 4]","association constant logK ass [1, 5]","limiting molar conductance Λo [1, 5]","association constant logK ass [1, 6]","limiting molar conductance Λo [1, 6]","association constant logK ass [1, 7]","limiting molar conductance Λo [1, 7]","association constant logK ass [1, 8]","limiting molar conductance Λo [1, 8]","association constant logK ass [1, 9]","limiting molar conductance Λo [1, 9]","association constant logK ass [1, 10]","limiting molar conductance Λo [1, 10]","association constant logK ass [1, 11]","limiting molar conductance Λo [1, 11]","association constant logK ass [1, 12]","limiting molar conductance Λo [1, 12]","association constant logK ass [1, 13]","limiting molar conductance Λo [1, 13]",further results
"O.O.O.O=C(O)COCC(=O)O.[Co] [Co(ODA), [Co(ODA)(H2O)2]·H2O]",3.38 (±0.01),226.58(±1.32) S cm^2 mol^−1,3.51 (±0.01),173.97(±0.60) S cm^2 mol^−1,3.77 (±0.01),134.29(±1.09) S cm^2 mol^−1,3.89 (±0.01),92.53(±0.96) S cm^2 mol^−1,4.05 (±0.01),57.02(±0.71) S cm^2 mol^−1,4.32 (±0.03),29.74(±1.46) S cm^2 mol^−1,3.35 (±0.01),223.49(±1.45) S cm^2 mol^−1,3.49 (±0.01),171.55(±0.74) S cm^2 mol^−1,3.77 (±0.01),133.47(±1.00) S cm^2 mol^−1,3.89 (±0.01),92.16(±1.07) S cm^2 mol^−1,"association constant logK ass [1, 14]: 4.09 (±0.03); limiting molar conductance Λo [1, 14]: 55.24(±0.84) S cm^2 mol^−1; association constant logK ass [1, 15]: 4.22 (±0.02); limiting molar conductance Λo [1, 15]: 28.52(±1.58) S cm^2 mol^−1; Zone of growth inhibition ([2]; 500 μg/disc): 14 mm; Zone of growth inhibition ([2]; 1000 μg/disc): 18 mm; Zone of growth inhibition ([3]; 500 μg/disc): 12 mm; Zone of growth inhibition ([3]; 1000 μg/disc): 14 mm"
"O.O.O.O.O.O.O.O.O.O=C([O-])COCC(=O)[O-].O=C([O-])COCC(=O)[O-].[Ni+2].[Ni+2] [Ni(ODA), [Ni(ODA)(H2O)3]·1.5H2O]",3.34 (±0.01),216.74(±1.08) S cm^2 mol^−1,3.48 (±0.01),161.75(±0.93) S cm^2 mol^−1,3.56 (±0.01),114.72(±1.55) S cm^2 mol^−1,3.75 (±0.01),91.35(±1.33) S cm^2 mol^−1,4.05 (±0.01),52.00(±0.50) S cm^2 mol^−1,4.17 (±0.04),29.49(±0.92) S cm^2 mol^−1,3.33 (±0.01),216.10(±0.74) S cm^2 mol^−1,3.47 (±0.01),161.00(±0.95) S cm^2 mol^−1,3.59 (±0.01),119.83(±0.83) S cm^2 mol^−1,3.74 (±0.01),90.63(±1.37) S cm^2 mol^−1,"association constant logK ass [1, 14]: 4.05 (±0.02); limiting molar conductance Λo [1, 14]: 51.85(±0.61) S cm^2 mol^−1; association constant logK ass [1, 15]: 4.15 (±0.03); limiting molar conductance Λo [1, 15]: 28.80(±0.48) S cm^2 mol^−1"
